From patent US20250320203A1, “4-(3H-PYRAZOLO[4,3-F]QUINOLIN-7-YL)-N-(2-(DIMETHYLAMINO)ETHYL)BENZAMIDE- OR HYDROXAMIC ACID COMPOUNDS, COMPOSITIONS, AND METHODS OF USE” (Purdue Research Foundation, priority 2022, published 2025)

How the values were obtained:
DNA = DNA intercalation assay; settings: doses from 1 mM to 10 nM
Protocol: FIG. 16 is a graph of data from a DNA intercalation assay. […] Data was fitted to a non-linear regression equation using GraphPad Prism 9.0 software (each data point represents the mean of triplicates).
To move compounds forward for further development, DNA intercalation assays were conducted to eliminate compounds with high affinity for DNA.

phosphorylated FLT3 = assay: Western blot, FLT3 target engagement in Molm-14 cells; type: cell-based, human; settings: Molm-14 cells treated for 2 hours
Protocol: Acute myeloid leukemia cells (Molm-14) were incubated with various concentrations of compound as specified. Cells were collected and lysed, and protein concentrations were quantified relative to BSA standards. After protein denaturation, proteins were separated via SDS-PAGE electrophoresis and transferred to NC membranes. After blocking, overnight incubation with specific primary antibodies, and room temperature incubation for 2 hours with peroxidase-conjugated secondary antibodies, peroxidase activity was detected with SuperSignal West Pico reagents (Thermo Scientific) using a CCD camera LAS-4000 (Fujifilm). Bands were normalized using housekeeping gene, Actin. Values reported represent the means of triplicates and error bars represent SD. All specific antibodies were purchased from Cell Signaling.
Additionally, FLT3 target engagement in Molm-14 cells was evaluated to confirm the FLT3 inhibition seen in the preliminary kinase screen of Example 4 (Table 1). Cells were treated for 2 hours, harvested, and subsequently analyzed.

FLT3-D835Y = target: T1, FLT3-D835Y (Homo sapiens, UniProt P36888, D835Y); assay: FLT3 (D835Y) enzyme inhibition, 10-dose IC50 (Reaction Biology); type: biochemical; settings: 10 μM ATP
T1 construct: purchased Reaction Biology (contract research service)
T1 sequence (P36888 27-993 D835Y): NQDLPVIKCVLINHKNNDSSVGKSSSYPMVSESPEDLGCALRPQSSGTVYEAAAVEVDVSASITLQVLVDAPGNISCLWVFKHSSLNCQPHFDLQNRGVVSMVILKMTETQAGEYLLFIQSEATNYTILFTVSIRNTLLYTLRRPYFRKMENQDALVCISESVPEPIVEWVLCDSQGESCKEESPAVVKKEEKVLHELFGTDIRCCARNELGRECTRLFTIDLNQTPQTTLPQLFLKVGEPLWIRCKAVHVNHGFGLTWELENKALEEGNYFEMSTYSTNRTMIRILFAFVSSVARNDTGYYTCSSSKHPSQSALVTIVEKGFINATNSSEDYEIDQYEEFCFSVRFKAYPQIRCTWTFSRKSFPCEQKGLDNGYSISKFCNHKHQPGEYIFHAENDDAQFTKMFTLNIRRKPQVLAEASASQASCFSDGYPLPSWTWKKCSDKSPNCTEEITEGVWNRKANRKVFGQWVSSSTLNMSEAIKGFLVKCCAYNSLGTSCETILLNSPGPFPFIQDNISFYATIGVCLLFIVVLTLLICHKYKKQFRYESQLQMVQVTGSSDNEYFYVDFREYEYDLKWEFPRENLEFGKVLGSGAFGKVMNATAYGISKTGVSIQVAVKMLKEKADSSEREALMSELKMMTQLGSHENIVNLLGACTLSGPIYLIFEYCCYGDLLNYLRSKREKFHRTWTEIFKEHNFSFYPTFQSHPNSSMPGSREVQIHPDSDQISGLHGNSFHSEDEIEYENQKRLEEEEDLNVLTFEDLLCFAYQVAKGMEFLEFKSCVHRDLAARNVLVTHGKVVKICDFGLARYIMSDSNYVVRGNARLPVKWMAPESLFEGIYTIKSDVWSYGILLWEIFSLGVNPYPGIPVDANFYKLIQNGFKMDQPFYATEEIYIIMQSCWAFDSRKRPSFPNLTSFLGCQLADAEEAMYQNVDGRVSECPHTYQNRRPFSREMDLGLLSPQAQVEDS

Molm-14 cells (FLT3-ITD) = assay: AML cell line growth inhibition (CellTiter-Blue), 50 nM; type: cell-based; settings: Homo sapiens, 50 nM inhibitor conc., means of triplicates, read-out: Percent Inhibition (%) Molm-14 growth
Protocol: With the amide kinase inhibitor library established, kinase inhibition and AML cell line (Molm-14, which harbors FLT3-ITD) growth inhibition were analyzed (Table 1). More specifically, Haspin and FLT3 inhibition were evaluated in-house via ADP Glo Kinase Assay (Promega, Madison, WI). […] Values reported are means of triplicates.
More specifically, cells were cultured to confluence in RPMI medium supplemented with 10% fetal bovine serum and 1× Penicillin-Streptomycin (Gibco™). Cells were plated at 5,000 cells/well in 96 well plates. After 24-hour incubation at 37° C. in a 5% CO2 incubator, compounds diluted in the same media were added to the indicated final concentration and allowed to incubate at 37° C. in a 5% CO2 incubator for 72 hours. Viability was determined using CellTiter-Blue® Cell Viability Assay (Promega, Madison, WI) with absorbance readings at 570 nm performed on a Cytation™ 5 Cell Imaging Multi-Mode Reader (BioTek) 3 hours after addition. Appropriate vehicle and cell-free controls were included. GI50 readings were confirmed by two scientists on two separate days.

Q: Which DNA intercalation (DNA) does the source give for Cc1c[nH]c(CNC(=O)c2ccc(-c3nc4ccc5[nH]ncc5c4c4c3CCCC4)cc2)n1 [Compound HSK205] here?
A: did not intercalate into DNA

Q: And the “phosphorylated FLT3” value (phosphorylated FLT3)?
A: reduction of phosphorylated FLT3

Q: And the IC50 (FLT3-D835Y)?
A: < 0.5 nM

Q: And the inhibition at 0.05 µM (Molm-14 cells (FLT3-ITD))?
A: 96%
